Read-outs that look alike come from different tables or passages of the source.
Columns and labels:
[1] = Study A: bioavailability of ospemifene after high caloric, high-fat breakfast versus fasted condition; conditions: for effect of food intake on bioavailability: 60 mg ospemifene tablet, single oral dose, high caloric (860 kcal), high-fat meal versus fasted, serum
Description: Blood samples for pharmacokinetic assessments were drawn during 72 hours at each study period. A washout period between the two treatments was at least 2 weeks. […] The meal provided approximately 150, 170 and 540 kcal from protein, carbohydrate and fat, respectively.

[2] = cited from earlier work
[3] = cited from earlier work; remark: listed apart in the source
[4] = 60 mg ospemifene tablet, single oral dose, low caloric (300 kcal), low-fat meal versus fasted, serum
Description: The composition of the light breakfast (approximately 300 kcal) was as follows: two slices of toast with margarine (5 g, fat content 60%), 6 slices (30 g) of cucumber, 240 ml skimmed (non-fat) milk and 100 ml orange juice. The test meal provided approximately 50, 180 and 70 kcal from protein, carbohydrate and fat, respectively.

[5] = Anttila M., 1997; cited from earlier work

| Structure (SMILES) | effect of food intake on bioavailability [1] | aqueous solubility [2] | tolerability ([3]; in vivo) | bioavailability ([3]; oral administration) | effect of food intake on bioavailability [4] | effect of food intake on ospemifene absorption (increase) ([1]; oral, food intake versus fasted) | effect of food intake on absorption [5] | effect of food intake on bioavailability [5] |
| --- | --- | --- | --- | --- | --- | --- | --- | --- |
| OCCOc1ccc(/C(=C(/CCCl)c2ccccc2)c2ccc(O)cc2)cc1 [4-hydroxy-ospemifene, 4-hydroxyospemifene] | substantial effect |  |  |  |  |  |  |  |
| OCCOc1ccc(/C(=C(/CCCl)c2ccccc2)c2ccccc2)cc1 [ospemifene] | enhanced | low aqueous solubility | excellent tolerability | rather low | enhanced | 2-3 fold |  |  |
| CN(C)CCOc1ccc(/C(=C(/CCCl)c2ccccc2)c2ccccc2)cc1 [toremifene] |  | low aqueous solubility |  |  |  |  | retarded the absorption | did not have any positive effect |

From patent publication US8772353B2, “Method for enhancing the bioavalability of ospemifene” (Hormos Medical Ltd., priority 2004, dated 2014)
